# Test system: plants
# Assay: Test D pre-emergence, other plants of Tables D1 and D3
# Assay type: in vivo
# Conditions: pre-emergence, 100=total damage, 0=no damage
# Procedure: A formulation containing 50 g/L of the test chemical was prepared by dissolving the active ingredient in a mixture of organic solvents and emulsifier, details of which are provided in the table. This formulation was then mixed with a small, variable amount of acetone to aid dissolution, before addition of a 0.2% v/v aqueous solution of an adjuvant, as the aqueous diluent, to form an aqueous spray solution which contains a predetermined concentration of the active ingredient.
# This aqueous spray solution was then sprayed onto plants including maize and wheat that had been seed treated with a herbicide safener, after one day's cultivation (for pre-emergence) or after about 12 days' cultivation (for post-emergence). The plants were grown from seeds sown in standard soil, placed in a glasshouse under controlled conditions (at 24/18° C. or 20/16° C., day/night; 16 h light; 65% humidity). After spray application the plants were then grown in a glasshouse under the same conditions and watered twice daily. After 15 d for post-emergence and 20 DAA for pre-emergence the test was evaluated (100=total damage to plant; 0=no damage to plant).
smiles,measurement,setting,value
COc1c(F)cccc1NC(=O)C1C(=O)N(C)CC1c1cc(C(F)(F)F)n(C)n1 (racemic) [Compound 18],"damage to plant, ALOMY","rate 15, 20 DAA",0
same,"damage to plant, AVEFA","rate 15, 20 DAA",0
same,"damage to plant, BEAVA","rate 15, 20 DAA",0
same,"damage to plant, BROTE","rate 15, 20 DAA",0
same,"damage to plant, BRSNN","rate 15, 20 DAA",0
same,"damage to plant, CHEAL","rate 15, 20 DAA",0
same,"damage to plant, GALAP","rate 15, 20 DAA",0
same,"damage to plant, HORVW","rate 15, 20 DAA",0
same,"damage to plant, KCHSC","rate 15, 20 DAA",0
same,"damage to plant, LOLPE","rate 15, 20 DAA",0
same,"damage to plant, POAAN","rate 15, 20 DAA",0
same,"damage to plant, POLCO","rate 15, 20 DAA",0
same,"damage to plant, SINAR","rate 15, 20 DAA",0
same,"damage to plant, STEME","rate 15, 20 DAA",0
same,"damage to plant, VERPE","rate 15, 20 DAA",0
same,"damage to plant, ALOMY","rate 30, 20 DAA",0
same,"damage to plant, AVEFA","rate 30, 20 DAA",0
same,"damage to plant, BEAVA","rate 30, 20 DAA",0
same,"damage to plant, BROTE","rate 30, 20 DAA",0
same,"damage to plant, BRSNN","rate 30, 20 DAA",0
same,"damage to plant, CHEAL","rate 30, 20 DAA",0
same,"damage to plant, GALAP","rate 30, 20 DAA",0
same,"damage to plant, HORVW","rate 30, 20 DAA",0
same,"damage to plant, KCHSC","rate 30, 20 DAA",0
same,"damage to plant, LOLPE","rate 30, 20 DAA",0
same,"damage to plant, POAAN","rate 30, 20 DAA",0
same,"damage to plant, POLCO","rate 30, 20 DAA",0
same,"damage to plant, SINAR","rate 30, 20 DAA",0
same,"damage to plant, STEME","rate 30, 20 DAA",0
same,"damage to plant, VERPE","rate 30, 20 DAA",0
same,"damage to plant, ALOMY","rate 60, 20 DAA",0
same,"damage to plant, AVEFA","rate 60, 20 DAA",0
same,"damage to plant, BEAVA","rate 60, 20 DAA",0
same,"damage to plant, BROTE","rate 60, 20 DAA",0
same,"damage to plant, BRSNN","rate 60, 20 DAA",0
same,"damage to plant, CHEAL","rate 60, 20 DAA",0
same,"damage to plant, GALAP","rate 60, 20 DAA",0
same,"damage to plant, HORVW","rate 60, 20 DAA",0
same,"damage to plant, KCHSC","rate 60, 20 DAA",0
same,"damage to plant, LOLPE","rate 60, 20 DAA",10
same,"damage to plant, POAAN","rate 60, 20 DAA",40
same,"damage to plant, POLCO","rate 60, 20 DAA",0
same,"damage to plant, SINAR","rate 60, 20 DAA",0
same,"damage to plant, STEME","rate 60, 20 DAA",0
same,"damage to plant, VERPE","rate 60, 20 DAA",10
same,"damage to plant, ALOMY","rate 130, 20 DAA",0
same,"damage to plant, AVEFA","rate 130, 20 DAA",0
same,"damage to plant, BEAVA","rate 130, 20 DAA",0
same,"damage to plant, BROTE","rate 130, 20 DAA",10
same,"damage to plant, BRSNN","rate 130, 20 DAA",0
same,"damage to plant, CHEAL","rate 130, 20 DAA",20
same,"damage to plant, GALAP","rate 130, 20 DAA",10
same,"damage to plant, HORVW","rate 130, 20 DAA",0
same,"damage to plant, KCHSC","rate 130, 20 DAA",0
same,"damage to plant, LOLPE","rate 130, 20 DAA",20
same,"damage to plant, POAAN","rate 130, 20 DAA",60
same,"damage to plant, POLCO","rate 130, 20 DAA",0
same,"damage to plant, SINAR","rate 130, 20 DAA",0
same,"damage to plant, STEME","rate 130, 20 DAA",10
same,"damage to plant, VERPE","rate 130, 20 DAA",20
same,"damage to plant, ALOMY","rate 250, 20 DAA",30
same,"damage to plant, AVEFA","rate 250, 20 DAA",30
same,"damage to plant, BEAVA","rate 250, 20 DAA",0
same,"damage to plant, BROTE","rate 250, 20 DAA",30
same,"damage to plant, BRSNN","rate 250, 20 DAA",10
same,"damage to plant, CHEAL","rate 250, 20 DAA",20
same,"damage to plant, GALAP","rate 250, 20 DAA",30
same,"damage to plant, HORVW","rate 250, 20 DAA",0
same,"damage to plant, KCHSC","rate 250, 20 DAA",0
same,"damage to plant, LOLPE","rate 250, 20 DAA",50
same,"damage to plant, POAAN","rate 250, 20 DAA",70
same,"damage to plant, POLCO","rate 250, 20 DAA",0
same,"damage to plant, SINAR","rate 250, 20 DAA",0
same,"damage to plant, STEME","rate 250, 20 DAA",20
same,"damage to plant, VERPE","rate 250, 20 DAA",60
same,"damage to plant, ALOMY","rate 500, 20 DAA",60
same,"damage to plant, AVEFA","rate 500, 20 DAA",40
same,"damage to plant, BEAVA","rate 500, 20 DAA",0
same,"damage to plant, BROTE","rate 500, 20 DAA",40
same,"damage to plant, BRSNN","rate 500, 20 DAA",20
same,"damage to plant, CHEAL","rate 500, 20 DAA",30
same,"damage to plant, GALAP","rate 500, 20 DAA",20
same,"damage to plant, HORVW","rate 500, 20 DAA",40
same,"damage to plant, KCHSC","rate 500, 20 DAA",0
same,"damage to plant, LOLPE","rate 500, 20 DAA",70
same,"damage to plant, POAAN","rate 500, 20 DAA",90
same,"damage to plant, POLCO","rate 500, 20 DAA",0
same,"damage to plant, SINAR","rate 500, 20 DAA",10
same,"damage to plant, STEME","rate 500, 20 DAA",10
same,"damage to plant, VERPE","rate 500, 20 DAA",50
